Measurements taken from ChEMBL document CHEMBL1201862, “PubChem BioAssay data set” (2004).
Calls of active or inactive are those of the source.

Columns and labels:
[1] = target: T1, Mannose-6-phosphate isomerase (Homo sapiens, UniProt P34949); assay: PMI enzyme inhibitors, confirmation, biochemical, fluorescence intensity (AID 1535)
T1 sequence (P34949 whole entry): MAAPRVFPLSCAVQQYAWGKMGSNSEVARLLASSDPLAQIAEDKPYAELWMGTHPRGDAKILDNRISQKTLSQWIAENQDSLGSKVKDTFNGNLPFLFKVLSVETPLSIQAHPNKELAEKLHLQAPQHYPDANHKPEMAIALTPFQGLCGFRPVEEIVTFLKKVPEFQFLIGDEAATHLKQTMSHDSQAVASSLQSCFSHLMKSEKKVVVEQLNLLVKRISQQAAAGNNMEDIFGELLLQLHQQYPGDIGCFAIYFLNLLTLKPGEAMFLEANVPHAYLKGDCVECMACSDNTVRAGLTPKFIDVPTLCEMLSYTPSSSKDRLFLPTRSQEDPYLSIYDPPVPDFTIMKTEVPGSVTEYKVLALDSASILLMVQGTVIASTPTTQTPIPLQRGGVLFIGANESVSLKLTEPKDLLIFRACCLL

Phosphomannomutase 2 = Phosphomannomutase 2 (Homo sapiens, UniProt O15305); assay: Counter screen SAR assay for PMM2 inhibitors via a fluorescence intensity assay. [Related pubchem assays (depositor defined):AID1545, AID1574]
[2] = target: Melanin-concentrating hormone receptor 1 (Homo sapiens, UniProt Q99705); assay: Fluorescence-based counterscreen for antagonists of the G-protein coupled receptor 7 (GPR7): cell-based high throughput dose response assay to identify antagonists of the melanin-concentrating hormone receptor 1 (MCHR1).; format: functional
[3] = target: T2, Alkaline phosphatase, tissue-nonspecific isozyme (Homo sapiens, UniProt P05186)
T2 sequence (P05186 whole entry): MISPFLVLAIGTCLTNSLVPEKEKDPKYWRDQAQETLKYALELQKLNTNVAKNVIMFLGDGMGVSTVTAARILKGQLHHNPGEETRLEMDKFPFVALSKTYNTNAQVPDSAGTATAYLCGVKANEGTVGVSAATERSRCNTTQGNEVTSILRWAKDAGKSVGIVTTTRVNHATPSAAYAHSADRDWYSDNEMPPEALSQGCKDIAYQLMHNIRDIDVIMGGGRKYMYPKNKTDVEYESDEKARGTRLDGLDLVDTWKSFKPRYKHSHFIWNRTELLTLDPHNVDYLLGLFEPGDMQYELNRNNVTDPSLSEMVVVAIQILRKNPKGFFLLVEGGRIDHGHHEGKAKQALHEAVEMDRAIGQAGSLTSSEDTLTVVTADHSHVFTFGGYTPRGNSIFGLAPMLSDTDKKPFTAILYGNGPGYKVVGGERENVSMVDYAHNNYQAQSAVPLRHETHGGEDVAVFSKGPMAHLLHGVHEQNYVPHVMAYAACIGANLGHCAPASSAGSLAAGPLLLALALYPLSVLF

[4] = target: Photoreceptor-specific nuclear receptor (Homo sapiens, UniProt Q9Y5X4); format: functional;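 also: potency for compounds that break the NR2E3 corepressor complex and count as activators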
[5] = target: Peroxisome proliferator-activated receptor gamma/Nuclear receptor corepressor 2 (Homo sapiens, UniProt P37231+Q9Y618); format: functional
Wee1-like protein kinase = Wee1-like protein kinase (Homo sapiens, UniProt P30291); assay: G2/M cell cycle arrest in HeLa, late-stage follow-up, mechanism study for Wee1 degradation inhibitor project, FACS, panel member Wee1 Degradation (AID 2088)
Sequence of Wee1-like protein kinase (P30291 whole entry): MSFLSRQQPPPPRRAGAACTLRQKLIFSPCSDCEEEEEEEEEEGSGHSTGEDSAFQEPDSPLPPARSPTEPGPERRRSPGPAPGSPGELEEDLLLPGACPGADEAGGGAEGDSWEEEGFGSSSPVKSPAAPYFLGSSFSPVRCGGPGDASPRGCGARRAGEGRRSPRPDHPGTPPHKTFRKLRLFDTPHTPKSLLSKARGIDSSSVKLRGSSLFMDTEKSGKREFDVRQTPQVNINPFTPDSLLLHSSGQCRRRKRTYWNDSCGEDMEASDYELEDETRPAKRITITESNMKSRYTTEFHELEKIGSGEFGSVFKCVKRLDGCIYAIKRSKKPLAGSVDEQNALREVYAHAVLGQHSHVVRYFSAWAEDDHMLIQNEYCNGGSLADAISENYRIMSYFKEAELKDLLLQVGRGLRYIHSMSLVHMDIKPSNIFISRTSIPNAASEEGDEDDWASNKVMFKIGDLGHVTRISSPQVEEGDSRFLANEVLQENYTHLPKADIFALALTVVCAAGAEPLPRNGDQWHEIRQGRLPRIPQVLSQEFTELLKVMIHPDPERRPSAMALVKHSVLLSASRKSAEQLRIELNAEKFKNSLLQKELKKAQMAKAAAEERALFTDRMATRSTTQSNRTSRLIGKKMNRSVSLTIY

[6] = target: G2/mitotic-specific cyclin-B1 (Homo sapiens, UniProt P14635); assay: G2/M cell cycle arrest in HeLa, late-stage follow-up, mechanism study for Wee1 degradation inhibitor project, FACS, panel member Cyclin B Degradation (AID 2088)
Sequence of G2/mitotic-specific cyclin-B1 (P14635 whole entry): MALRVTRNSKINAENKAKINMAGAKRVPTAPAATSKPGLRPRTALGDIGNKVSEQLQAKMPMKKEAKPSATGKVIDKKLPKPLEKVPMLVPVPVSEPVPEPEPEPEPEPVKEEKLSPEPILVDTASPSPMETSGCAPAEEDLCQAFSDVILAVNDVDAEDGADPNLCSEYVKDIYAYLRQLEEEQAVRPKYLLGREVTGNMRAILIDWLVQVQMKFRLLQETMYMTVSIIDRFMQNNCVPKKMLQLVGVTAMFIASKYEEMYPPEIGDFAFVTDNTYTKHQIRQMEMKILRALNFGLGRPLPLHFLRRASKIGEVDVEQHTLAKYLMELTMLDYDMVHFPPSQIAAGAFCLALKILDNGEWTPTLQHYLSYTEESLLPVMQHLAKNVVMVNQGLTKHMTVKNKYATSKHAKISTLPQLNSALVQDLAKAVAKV

[7] = target: T3, Tyrosine-protein phosphatase non-receptor type 7 (Homo sapiens, UniProt P35236); format: functional
T3 sequence (P35236 whole entry): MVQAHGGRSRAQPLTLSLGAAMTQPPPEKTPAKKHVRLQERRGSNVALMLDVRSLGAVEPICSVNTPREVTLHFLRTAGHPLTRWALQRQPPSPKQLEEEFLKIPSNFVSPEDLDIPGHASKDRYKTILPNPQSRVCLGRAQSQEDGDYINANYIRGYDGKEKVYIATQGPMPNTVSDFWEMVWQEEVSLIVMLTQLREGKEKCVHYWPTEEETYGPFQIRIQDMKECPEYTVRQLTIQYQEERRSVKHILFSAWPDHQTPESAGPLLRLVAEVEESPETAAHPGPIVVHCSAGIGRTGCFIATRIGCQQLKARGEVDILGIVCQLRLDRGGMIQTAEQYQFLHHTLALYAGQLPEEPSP

[8] = target: Glyceraldehyde-3-phosphate dehydrogenase (Homo sapiens, UniProt P04406)
Sequence of Glyceraldehyde-3-phosphate dehydrogenase (P04406 whole entry): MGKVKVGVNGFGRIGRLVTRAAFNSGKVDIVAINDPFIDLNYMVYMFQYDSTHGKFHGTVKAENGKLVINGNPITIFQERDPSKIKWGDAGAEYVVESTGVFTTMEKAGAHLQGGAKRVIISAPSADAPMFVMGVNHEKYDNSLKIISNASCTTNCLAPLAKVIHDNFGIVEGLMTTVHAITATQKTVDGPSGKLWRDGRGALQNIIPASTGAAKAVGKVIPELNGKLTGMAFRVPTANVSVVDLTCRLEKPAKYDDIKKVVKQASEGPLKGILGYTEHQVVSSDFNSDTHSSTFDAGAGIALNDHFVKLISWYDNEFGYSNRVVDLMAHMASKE

[9] = target: Heat shock cognate 71 kDa protein (Homo sapiens, UniProt P11142); assay: In Vitro Hsc70 Dose Response Fluorescence Polarization Assay. [Related pubchem assays: 1072 ]
Sequence of Heat shock cognate 71 kDa protein (P11142 whole entry): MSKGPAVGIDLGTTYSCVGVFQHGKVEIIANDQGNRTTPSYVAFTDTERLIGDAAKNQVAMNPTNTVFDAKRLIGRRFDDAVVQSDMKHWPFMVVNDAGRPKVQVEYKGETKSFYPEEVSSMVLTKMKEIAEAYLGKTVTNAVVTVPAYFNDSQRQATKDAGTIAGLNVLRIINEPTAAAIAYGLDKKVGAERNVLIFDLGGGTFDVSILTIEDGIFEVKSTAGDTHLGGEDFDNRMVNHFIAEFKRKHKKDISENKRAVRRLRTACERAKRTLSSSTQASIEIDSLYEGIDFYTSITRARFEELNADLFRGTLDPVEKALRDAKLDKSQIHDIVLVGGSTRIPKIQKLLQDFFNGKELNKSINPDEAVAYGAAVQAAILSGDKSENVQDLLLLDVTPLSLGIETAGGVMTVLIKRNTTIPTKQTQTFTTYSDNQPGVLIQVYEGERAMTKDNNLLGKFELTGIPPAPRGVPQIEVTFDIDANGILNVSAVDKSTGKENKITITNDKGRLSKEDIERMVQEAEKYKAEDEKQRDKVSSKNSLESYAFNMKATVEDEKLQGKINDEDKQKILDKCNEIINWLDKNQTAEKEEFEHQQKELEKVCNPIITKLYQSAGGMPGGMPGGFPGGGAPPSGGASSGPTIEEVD

[10] = target: Heat shock 70 kDa protein 1A (Homo sapiens, UniProt P0DMV8); assay: Hsp70 inhibitors, SAR follow-up, biochemical, fluorescence polarization (AID 1072)
Sequence of Heat shock 70 kDa protein 1A (P0DMV8 whole entry): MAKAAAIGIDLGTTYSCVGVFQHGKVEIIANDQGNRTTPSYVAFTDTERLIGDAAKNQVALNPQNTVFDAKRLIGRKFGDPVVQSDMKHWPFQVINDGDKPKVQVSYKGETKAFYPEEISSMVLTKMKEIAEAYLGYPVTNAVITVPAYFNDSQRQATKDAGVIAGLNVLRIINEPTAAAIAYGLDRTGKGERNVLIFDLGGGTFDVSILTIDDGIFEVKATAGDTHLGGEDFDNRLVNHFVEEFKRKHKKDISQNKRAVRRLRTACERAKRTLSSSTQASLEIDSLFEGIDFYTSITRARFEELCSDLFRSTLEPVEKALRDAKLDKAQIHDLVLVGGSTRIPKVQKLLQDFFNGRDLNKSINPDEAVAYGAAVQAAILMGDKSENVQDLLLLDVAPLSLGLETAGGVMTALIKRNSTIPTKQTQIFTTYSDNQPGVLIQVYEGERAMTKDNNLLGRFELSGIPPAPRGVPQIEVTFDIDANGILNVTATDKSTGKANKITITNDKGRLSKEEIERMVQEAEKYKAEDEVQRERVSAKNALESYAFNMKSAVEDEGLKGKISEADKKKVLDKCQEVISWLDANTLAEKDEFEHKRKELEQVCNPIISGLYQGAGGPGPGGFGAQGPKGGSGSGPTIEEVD

[11] = target: T4, Dual specificity protein phosphatase 6 (Rattus norvegicus, UniProt Q64346)
T4 sequence (Q64346 whole entry): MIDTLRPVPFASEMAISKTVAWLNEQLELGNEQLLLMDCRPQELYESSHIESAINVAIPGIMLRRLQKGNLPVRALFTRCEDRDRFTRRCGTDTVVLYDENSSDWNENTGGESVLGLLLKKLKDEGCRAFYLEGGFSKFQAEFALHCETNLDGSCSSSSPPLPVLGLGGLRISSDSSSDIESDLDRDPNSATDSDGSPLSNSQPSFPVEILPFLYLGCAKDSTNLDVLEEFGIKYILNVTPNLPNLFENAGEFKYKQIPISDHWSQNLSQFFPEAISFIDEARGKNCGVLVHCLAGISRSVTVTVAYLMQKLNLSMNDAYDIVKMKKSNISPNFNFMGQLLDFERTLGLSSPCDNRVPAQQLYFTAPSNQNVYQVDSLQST

[12] = target: T4, Dual specificity protein phosphatase 6; format: functional
Troponin, cardiac muscle = Troponin, cardiac muscle (Homo sapiens, UniProt P19429+P45379+P63316); assay: Fluorescence-based biochemical high throughput dose response assay for activators of the calcium sensitivity of cardiac Regulated Thin Filaments (RTF). [Related pubchem assays (depositor defined):AID493008, AID493018, AID504382, AID504383]; format: protein-complex assay
[13] = target: Eukaryotic translation initiation factor 4H (Homo sapiens, UniProt Q15056); assay: human eIF4H binding inhibitors, primary screen, translation initiation inhibitor project, biochemical, uHTS, fluorescence polarization (AID 2012)
[14] = test system: Streptococcus sp. 'group A'; assay: growth inhibition of control SK(-) GAS strain, dose response, counter-screen for streptokinase expression inhibitor project, luminescence, kanamycin, BacTiterGlo, confirmation (AID 1900); format: functional, organism-based
Streptokinase A = target: T5, Streptokinase A (Streptococcus pyogenes serotype M1, UniProt P10520); assay: S. pyogenes streptokinase expression inhibitors, potency, dose response, plasminogen activation absorbance, OD405 (AID 1914); format: functional, Streptococcus pyogenes M1 GAS;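 also: secreted streptokinase activity via plasminogen activation per viability signal from cell pellet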
T5 sequence (P10520 whole entry): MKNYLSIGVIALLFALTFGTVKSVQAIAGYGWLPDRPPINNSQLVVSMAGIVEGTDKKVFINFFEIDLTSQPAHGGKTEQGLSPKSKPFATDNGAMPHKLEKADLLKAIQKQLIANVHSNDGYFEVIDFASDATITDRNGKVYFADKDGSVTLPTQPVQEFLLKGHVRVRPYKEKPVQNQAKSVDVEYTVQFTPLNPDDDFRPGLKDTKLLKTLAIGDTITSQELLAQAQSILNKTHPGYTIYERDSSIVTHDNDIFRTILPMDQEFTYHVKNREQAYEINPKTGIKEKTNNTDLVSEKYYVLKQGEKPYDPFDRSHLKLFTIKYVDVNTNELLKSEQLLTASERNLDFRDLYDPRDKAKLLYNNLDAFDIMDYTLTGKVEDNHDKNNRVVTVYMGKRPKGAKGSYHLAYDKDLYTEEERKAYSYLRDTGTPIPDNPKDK

Streptococcus = assay: Group A Streptococcus viability loss, dose response, counter-screen for streptokinase expression inhibitor project, luminescence, BacTiterGlo (AID 1915); format: functional, organism-based;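 also: potency for reduction of bacterial viability or growth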
[15] = target: Polyadenylate-binding protein 1 (Homo sapiens, UniProt P11940); assay: PABP poly(A) RNA binding inhibitors, primary screen, biochemical, fluorescence polarization, uHTS (AID 2014)
[16] = target: T6, Carboxy-terminal domain RNA polymerase II polypeptide A small phosphatase 1 (Homo sapiens, UniProt Q9GZU7); assay: inhibitors of CTDSP1, concentration-response testing, biochemical assay, absorbance-based, actives from ultra-high-throughput screening (AID 540297); format: functional
T6 sequence (Q9GZU7 whole entry): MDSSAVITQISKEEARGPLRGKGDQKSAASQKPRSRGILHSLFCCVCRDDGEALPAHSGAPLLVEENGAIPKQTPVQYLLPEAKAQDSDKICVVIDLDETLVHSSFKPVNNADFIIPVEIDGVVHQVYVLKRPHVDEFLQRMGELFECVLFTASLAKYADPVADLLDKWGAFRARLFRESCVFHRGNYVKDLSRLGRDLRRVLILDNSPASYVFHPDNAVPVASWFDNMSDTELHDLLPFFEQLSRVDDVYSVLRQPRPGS

Beta-galactosidase = Beta-galactosidase (Escherichia coli, UniProt Q8VNN2); assay: beta-galactosidase enzyme inhibitors and activators, dose response, artefact control for CCR6 antagonist project, biochemical, E. coli enzyme, set 3 (AID 504712); format: functional
[17] = Fluorescence-based cell-based high throughput dose response assay for inhibitors of the interaction of nucleotide-binding oligomerization domain containing 2 (NOD2) and the receptor-interacting serine-threonine kinase 2 (RIPK2).; format: functional; settings: Homo sapiens
[18] = THP-1 cell cytotoxicity, dose response, cytotoxicity control for Vif-APOBEC3G degradation inhibitor project, THP-1 cells (AID 1117359); format: functional; settings: Human immunodeficiency virus 1, THP-1
[19] = target: Voltage-dependent T-type calcium channel subunit alpha-1H (Homo sapiens, UniProt O95180); assay: Cav3.2 T-type channel inhibitors, cell-based, synthetic library set 1, calcium flux (AID 493022); format: functional
Sequence of Voltage-dependent T-type calcium channel subunit alpha-1H (O95180 whole entry): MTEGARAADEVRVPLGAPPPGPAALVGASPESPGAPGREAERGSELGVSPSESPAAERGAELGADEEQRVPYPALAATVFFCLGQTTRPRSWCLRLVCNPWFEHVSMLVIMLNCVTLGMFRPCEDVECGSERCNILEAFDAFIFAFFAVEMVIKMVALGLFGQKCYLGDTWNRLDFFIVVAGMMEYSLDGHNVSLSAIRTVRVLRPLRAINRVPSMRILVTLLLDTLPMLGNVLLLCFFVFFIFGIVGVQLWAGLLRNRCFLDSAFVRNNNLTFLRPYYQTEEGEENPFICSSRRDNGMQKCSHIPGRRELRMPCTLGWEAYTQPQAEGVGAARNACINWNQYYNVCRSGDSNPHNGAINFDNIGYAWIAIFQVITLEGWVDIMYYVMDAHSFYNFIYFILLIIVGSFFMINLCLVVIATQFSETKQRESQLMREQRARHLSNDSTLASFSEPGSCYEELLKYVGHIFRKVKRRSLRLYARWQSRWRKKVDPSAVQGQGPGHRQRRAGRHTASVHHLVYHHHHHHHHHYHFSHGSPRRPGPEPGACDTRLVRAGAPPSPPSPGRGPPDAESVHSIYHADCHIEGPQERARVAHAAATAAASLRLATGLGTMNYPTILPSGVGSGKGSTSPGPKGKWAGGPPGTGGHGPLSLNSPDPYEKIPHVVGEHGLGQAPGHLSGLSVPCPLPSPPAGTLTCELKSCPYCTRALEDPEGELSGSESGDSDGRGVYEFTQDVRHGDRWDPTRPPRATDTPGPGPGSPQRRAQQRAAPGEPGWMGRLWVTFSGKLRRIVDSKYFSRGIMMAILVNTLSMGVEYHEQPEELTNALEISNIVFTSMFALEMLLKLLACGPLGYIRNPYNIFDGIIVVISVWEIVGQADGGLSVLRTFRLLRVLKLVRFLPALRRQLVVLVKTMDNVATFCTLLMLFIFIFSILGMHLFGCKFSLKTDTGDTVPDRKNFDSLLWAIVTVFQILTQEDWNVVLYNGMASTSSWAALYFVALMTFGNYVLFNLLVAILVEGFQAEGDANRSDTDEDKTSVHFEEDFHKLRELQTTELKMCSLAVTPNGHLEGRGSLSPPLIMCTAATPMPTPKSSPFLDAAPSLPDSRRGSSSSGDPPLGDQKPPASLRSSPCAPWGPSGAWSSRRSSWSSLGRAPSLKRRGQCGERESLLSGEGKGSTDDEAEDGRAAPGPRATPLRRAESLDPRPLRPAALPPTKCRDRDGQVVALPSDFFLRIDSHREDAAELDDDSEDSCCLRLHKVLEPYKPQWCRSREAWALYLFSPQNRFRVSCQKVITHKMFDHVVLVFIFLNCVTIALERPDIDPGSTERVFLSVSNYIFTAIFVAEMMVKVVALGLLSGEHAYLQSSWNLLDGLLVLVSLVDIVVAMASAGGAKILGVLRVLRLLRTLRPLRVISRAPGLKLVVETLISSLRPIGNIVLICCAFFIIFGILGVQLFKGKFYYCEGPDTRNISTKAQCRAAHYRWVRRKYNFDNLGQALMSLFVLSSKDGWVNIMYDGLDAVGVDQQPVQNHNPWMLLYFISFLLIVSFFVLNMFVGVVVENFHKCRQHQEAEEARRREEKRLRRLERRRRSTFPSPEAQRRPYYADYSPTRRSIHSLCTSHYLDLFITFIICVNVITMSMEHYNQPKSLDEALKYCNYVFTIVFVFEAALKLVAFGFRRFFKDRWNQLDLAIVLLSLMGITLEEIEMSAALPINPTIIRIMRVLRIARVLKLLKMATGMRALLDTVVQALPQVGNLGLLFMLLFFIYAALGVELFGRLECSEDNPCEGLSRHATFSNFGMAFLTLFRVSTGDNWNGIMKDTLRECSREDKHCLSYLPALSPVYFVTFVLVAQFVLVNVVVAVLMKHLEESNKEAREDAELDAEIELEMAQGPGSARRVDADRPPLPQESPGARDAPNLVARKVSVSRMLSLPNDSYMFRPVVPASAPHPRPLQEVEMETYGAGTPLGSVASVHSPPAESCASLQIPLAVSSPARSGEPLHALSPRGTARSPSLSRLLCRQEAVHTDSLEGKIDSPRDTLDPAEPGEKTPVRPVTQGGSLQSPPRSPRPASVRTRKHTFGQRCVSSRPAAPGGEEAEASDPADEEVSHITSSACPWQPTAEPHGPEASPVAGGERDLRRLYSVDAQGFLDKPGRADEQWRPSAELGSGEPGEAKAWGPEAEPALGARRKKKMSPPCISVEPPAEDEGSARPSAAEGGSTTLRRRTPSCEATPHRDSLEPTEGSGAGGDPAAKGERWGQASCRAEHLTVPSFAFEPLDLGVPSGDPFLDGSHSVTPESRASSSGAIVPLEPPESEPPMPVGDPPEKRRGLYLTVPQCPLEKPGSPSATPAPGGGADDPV

[20] = target: T2, Alkaline phosphatase, tissue-nonspecific isozyme; assay: human TNAP enzyme inhibitors, SAR follow-up, biochemical, luminescent, dose response (AID 1056)
[21] = target: Alkaline phosphatase, placental type (Homo sapiens, UniProt P05187); assay: PLAP enzyme inhibitors, confirmation, biochemical, luminescence (AID 1512); format: functional
Trypsin = Trypsin (Sus scrofa, UniProt P00761); assay: porcine trypsin inhibitors, dose response, selectivity assay for Rce1 protease inhibitor project, biochemical, quenched peptide fluorescence, cherry-pick (AID 488789)

Sc1n[nH]c(-c2ccccc2Cl)n1
IC50 [1]: > 50 µM (inactive)
IC50 (Phosphomannomutase 2): > 100 µM (inactive)

O=C(c1ccc(Cl)c(S(=O)(=O)N2CCCCCC2)c1)N1CCCCC1
IC50 [2]: 32.7 µM (not active)

Cc1ccc(Cl)cc1-n1ncc2c(NNC(=O)c3ccco3)ncnc21
EC50 [3]: 63.2 µM (not active)

CCN(CC)CCN1C(=O)C(O)=C(C(=O)c2cc3ccccc3o2)C1c1cccnc1 (configuration not stated)
IC50 [4]: > 39.8 µM (not active)
IC50 [5]: 2.95 µM (active)

Cc1cc(O)nc(-n2nc(C)cc2NC(=O)c2ccccc2)n1
EC50 (Wee1-like protein kinase): > 16.6 µM (active)
EC50 [6]: > 49.7 µM (inactive)

O=C(O)C(O)c1ccccc1 (configuration not stated) [MANDELIC ACID]
IC50 [7]: > 100 µM (not active)
IC50 [8]: > 100 µM (not active)
IC50 [9]: > 100 µM (not active)
IC50 [10]: > 100 µM (not active)
IC50 [11]: > 100 µM (inactive)
IC50 [12]: > 100 µM (inactive)

CCOC(=O)/C(=C\c1c[nH]c2ccccc12)NC(C)=O
EC50 (Troponin, cardiac muscle): > 71.4 µM (inactive)

COc1ccc(C(CC(=O)N2CCCC(C)C2)c2c(OC)cc(OC)c3c(-c4ccccc4)cc(=O)oc23)cc1 (configuration not stated)
IC50 [13]: 8.23 µM (active)
EC50 [14]: 14.5 µM (active)
EC50 (Streptokinase A): 41.2 µM (active)
EC50 (Streptococcus): > 150 µM (not active)
IC50 [15]: 28.3 µM (active)
IC50 [16]: 7.99 µM (active)

CSc1cccc(NC(=O)CCCOc2cc(=O)n(C)c3ccccc23)c1
EC50 (Wee1-like protein kinase): > 49.7 µM (inactive)
EC50 [6]: > 49.7 µM (inactive)

CCOC(=O)c1cc([N+](=O)[O-])cc([N+](=O)[O-])c1Sc1[nH]cnc2ncnc1-2
IC50 (Beta-galactosidase): > 66.6 µM (inactive)
IC50 [17]: 3.29 µM (active)
CC50 [18]: 1.6 µM (active)

Cc1ccc(-c2nnc(NC(=O)COc3ccc(F)cc3)o2)cc1C
EC50 [19]: 10 µM (active)

O=C(CSc1nnc[nH]1)NCCOc1ccccc1
IC50 [8]: > 100 µM (not active)
IC50 [9]: > 100 µM (not active)
IC50 [10]: > 100 µM (not active)
IC50 [20]: 28.8 µM (active)

O=C(COc1ccc(F)cc1Cl)Nc1nnc(-c2ccc3ccccc3c2)o1
EC50 [19]: 3.6 µM (active)

Cn1c(=O)c2c(nc(N/N=C/c3ccc(OC(=O)c4ccco4)cc3)n2Cc2ccccc2)n(C)c1=O
EC50 [3]: > 100 µM (not active)

CC(C)(C)NC(=O)c1cc(-c2ccc(Cl)cc2Cl)n[nH]1
IC50 [8]: > 100 µM (not active)
IC50 [21]: > 100 µM (inactive)

O=C(Nc1ccc2c(c1)OCCO2)c1cccc(Cl)c1Cl
EC50 (Troponin, cardiac muscle): > 71.4 µM (inactive)

NS(=O)(=O)c1ccc(NC(=O)/C=C/c2cn(-c3ccccc3)nc2-c2cccc(Cl)c2)cc1
AC50 (Trypsin): 81.4 µM (active)
